{
  "source": "paper PMC10052868",
  "about": "(European journal of medicinal chemistry, 2022)",
  "key": {"PfGSK3": {"target": "PfGSK3 (Plasmodium falciparum, UniProt O77344)", "assay": "KinaseSeeker assay on PfGSK3", "assay_type": "binding, P. falciparum"}, "PfPKB": {"target": "PfPKB (Plasmodium falciparum, UniProt Q8I4W3)", "assay": "KinaseSeeker assay on PfPKB", "assay_type": "binding, P. falciparum"}, "PfNEK3": {"target": "T1, PfNEK3 (Plasmodium falciparum, UniProt Q8I629)", "T1 sequence (Q8I629 1-347)": "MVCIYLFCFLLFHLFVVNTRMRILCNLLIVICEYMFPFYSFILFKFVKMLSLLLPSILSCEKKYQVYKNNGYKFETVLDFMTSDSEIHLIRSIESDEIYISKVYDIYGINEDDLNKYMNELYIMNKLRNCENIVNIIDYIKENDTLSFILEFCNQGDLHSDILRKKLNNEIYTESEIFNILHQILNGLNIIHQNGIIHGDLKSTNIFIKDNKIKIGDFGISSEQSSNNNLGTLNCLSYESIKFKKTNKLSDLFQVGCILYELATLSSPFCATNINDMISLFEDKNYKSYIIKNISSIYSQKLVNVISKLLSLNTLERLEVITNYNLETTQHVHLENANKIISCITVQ", "assay": "KinaseSeeker assay on PfNEK3", "assay_type": "binding, P. falciparum"}, "[1]": {"system": "panel of 468 kinases (403 non-mutant kinases)", "assay_type": "binding, human", "conditions": "for number of non-mutant kinases inhibited with ≤1% control: 1 μM, out of 403 non-mutant kinases"}, "PfCDPK5": {"target": "PfCDPK5 (Plasmodium falciparum, UniProt A0A5K1K8H0)", "sequence (A0A5K1K8H0 whole entry)": "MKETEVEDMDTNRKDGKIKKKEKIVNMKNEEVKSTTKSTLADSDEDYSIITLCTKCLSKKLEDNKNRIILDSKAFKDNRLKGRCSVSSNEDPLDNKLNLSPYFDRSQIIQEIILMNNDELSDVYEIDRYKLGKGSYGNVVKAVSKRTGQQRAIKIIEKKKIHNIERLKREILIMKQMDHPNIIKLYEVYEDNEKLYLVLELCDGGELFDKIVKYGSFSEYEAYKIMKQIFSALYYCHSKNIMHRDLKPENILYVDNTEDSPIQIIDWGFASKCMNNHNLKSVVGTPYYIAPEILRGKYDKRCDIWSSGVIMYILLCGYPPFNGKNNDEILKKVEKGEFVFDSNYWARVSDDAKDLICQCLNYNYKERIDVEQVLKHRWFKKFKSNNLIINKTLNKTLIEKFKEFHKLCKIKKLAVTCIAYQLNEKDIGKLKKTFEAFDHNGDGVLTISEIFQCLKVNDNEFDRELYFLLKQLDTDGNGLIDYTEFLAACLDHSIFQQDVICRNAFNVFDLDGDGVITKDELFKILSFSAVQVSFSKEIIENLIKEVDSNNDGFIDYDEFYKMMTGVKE", "assay": "KinaseSeeker assay on PfCDPK5", "assay_type": "binding, P. falciparum"}, "PfPK9": {"system": "PfPK9", "assay": "KinaseSeeker assay on PfPK9", "assay_type": "binding, P. falciparum", "conditions": "duplicate"}, "PfNEK1": {"system": "PfNEK1", "assay": "KinaseSeeker assay on PfNEK1", "assay_type": "binding, P. falciparum", "conditions": "duplicate"}, "PfPK5": {"target": "PfPK5 (Plasmodium falciparum, UniProt P61075)", "sequence (P61075 whole entry)": "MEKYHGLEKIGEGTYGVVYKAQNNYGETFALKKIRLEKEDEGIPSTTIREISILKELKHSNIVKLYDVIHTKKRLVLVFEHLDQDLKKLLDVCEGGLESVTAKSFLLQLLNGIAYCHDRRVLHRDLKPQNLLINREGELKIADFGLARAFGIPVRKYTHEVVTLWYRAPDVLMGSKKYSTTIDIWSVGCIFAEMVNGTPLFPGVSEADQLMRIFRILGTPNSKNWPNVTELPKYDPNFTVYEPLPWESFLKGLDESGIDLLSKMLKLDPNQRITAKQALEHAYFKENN", "assay": "KinaseSeeker assay on PfPK5", "assay_type": "binding, P. falciparum", "conditions": "read-out: PfPK5 % Activity remaining at 1 μM"}, "PfARK3": {"system": "PfARK3", "assay": "KinaseSeeker assay on PfARK3", "assay_type": "binding, P. falciparum", "conditions": "duplicate"}, "PfPK6": {"target": "PfPK6 (Plasmodium falciparum, UniProt Q8IDW1)", "assay": "KinaseSeeker split-luciferase assay on PfPK6", "assay_type": "binding, P. falciparum", "conditions": "for remaining activity at 1 µM: read-out: PfPK6 activity remaining at 1 μM (%)"}, "P. falciparum 3D7": {"system": "P. falciparum 3D7", "assay": "P. falciparum asexual blood stage viability assay", "assay_type": "cell-based"}, "P. berghei ANKA": {"system": "P. berghei ANKA", "assay": "P. berghei liver stage parasite load assay in HepG2 cells", "assay_type": "cell-based", "conditions": "for fold difference between P. berghei EC50 and CellTiter-Fluor CC50: HepG2 host cells; for P. berghei liver stage activity in words: inactive = EC50 not reported because <5-fold difference between observed EC50 and HepG2 CellTiter-Fluor cytotoxicity"}, "PfARK1": {"system": "PfARK1", "assay": "KinaseSeeker assay on PfARK1", "assay_type": "binding, P. falciparum", "conditions": "duplicate"}, "[2]": {"conditions": "GE = −ΔΔG / Δ(no. of heavy atoms), PfPK6 inhibition"}},
  "data": [
    {"smiles": "COc1cc2nccc(Oc3ccc(NC(=O)Nc4ccc(CN5CCN(C)CC5)c(C(F)(F)F)c4)c(F)c3)c2cc1OC", "note": "[Compound 45, 1-(4-((6,7-dimethoxyquinolin-4-yl)oxy)-2-fluorophenyl)-3-(4-((4-methylpiperazin-1-yl)methyl)-3-(trifluoromethyl)phenyl)urea diformate]", "values": [
      {"measurement": "IC50", "setting": "PfGSK3", "result": "40 to 144", "unit": "nM"},
      {"measurement": "IC50", "setting": "PfPKB", "result": "40 to 144", "unit": "nM"},
      {"measurement": "IC50", "setting": "PfNEK3", "result": "40 to 144", "unit": "nM"},
      {"measurement": "number of non-mutant kinases inhibited with ≤1% control", "setting": "[1]", "result": 134},
      {"measurement": "IC50", "setting": "PfCDPK5", "result": "40 to 144", "unit": "nM"}
    ]},
    {"smiles": "COc1cc2nccc(Oc3ccc(NC(=O)Nc4ccc(C=C5CCNCC5)cc4)c(F)c3)c2cc1OC", "note": "[Compound 68, 1-(4-((6,7-dimethoxyquinolin-4-yl)oxy)-2-fluorophenyl)-3-(4-(piperidin-4-ylidenemethyl)phenyl)urea]", "values": [
      {"measurement": "PfPK9 % Activity remaining at 1 μM", "setting": "PfPK9", "result": 100, "unit": "%"},
      {"measurement": "PfNEK1 % Activity remaining at 1 μM", "setting": "PfNEK1", "result": 100, "unit": "%"},
      {"measurement": "remaining activity at 1 µM", "setting": "PfPK5", "result": 100, "unit": "%"},
      {"measurement": "PfARK3 % Activity remaining at 1 μM", "setting": "PfARK3", "result": 100, "unit": "%"},
      {"measurement": "remaining activity at 1 µM", "setting": "PfPK6", "result": 1, "unit": "%"},
      {"measurement": "fold improvement in P. falciparum blood stage inhibitory activity over 41", "setting": "P. falciparum 3D7; compared to 41", "result": "approximately 4 fold"},
      {"measurement": "fold difference between P. berghei EC50 and CellTiter-Fluor CC50", "setting": "P. berghei ANKA", "result": 1.9, "unit": "fold"},
      {"measurement": "P. berghei liver stage activity in words", "setting": "P. berghei ANKA", "result": "inactive^g"}
    ]},
    {"smiles": "COc1cc2nccc(Oc3ccc(NC(=O)Nc4ccc(OC5CCN(C)CC5)c(C(F)(F)F)c4)c(F)c3)c2cc1OC", "note": "[Compound 75, 1-(4-((6,7-dimethoxyquinolin-4-yl)oxy)-2-fluorophenyl)-3-(4-((1-methylpiperidin-4-yl)oxy)-3-(trifluoromethyl)phenyl)urea]", "values": [
      {"measurement": "PfNEK1 % Activity remaining at 1 μM", "setting": "PfNEK1", "result": 100, "unit": "%"},
      {"measurement": "remaining activity at 1 µM", "setting": "PfPK6", "result": 0, "unit": "%"},
      {"measurement": "fold improvement in P. falciparum blood stage potency on adding CF3 or OCF3", "setting": "P. falciparum 3D7; compared to parent compound without meta group (64, 66, 67 or 68)", "result": 8, "unit": "fold"},
      {"measurement": "fold difference between P. berghei EC50 and CellTiter-Fluor CC50", "setting": "P. berghei ANKA", "result": 1.9, "unit": "fold"},
      {"measurement": "P. berghei liver stage activity in words", "setting": "P. berghei ANKA", "result": "inactive^g"}
    ]},
    {"smiles": "COc1cc2nccc(Oc3ccc(NC(=O)Nc4ccc(CC5CCNCC5)cc4)c(F)c3)c2cc1OC", "note": "[Compound 67, 1-(4-((6,7-dimethoxyquinolin-4-yl)oxy)-2-fluorophenyl)-3-(4-(piperidin-4-ylmethyl)phenyl)urea]", "values": [
      {"measurement": "PfNEK1 % Activity remaining at 1 μM", "setting": "PfNEK1", "result": 100, "unit": "%"},
      {"measurement": "PfARK3 % Activity remaining at 1 μM", "setting": "PfARK3", "result": 100, "unit": "%"},
      {"measurement": "remaining activity at 1 µM", "setting": "PfPK6", "result": 2, "unit": "%"},
      {"measurement": "number of non-mutant kinases inhibited with ≤1% control", "setting": "[1]", "result": 22},
      {"measurement": "P. berghei liver stage activity in words", "setting": "P. berghei ANKA", "result": "inactive^g"}
    ]},
    {"smiles": "COc1cc2nccc(Oc3ccc(NC(=O)Nc4ccc(F)cc4F)c(F)c3)c2cc1OC", "note": "[Ki8751, reference compound]", "values": [
      {"measurement": "group efficiency (GE) of the 7-methoxy group", "setting": "PfPK6; [2]", "result": "0.81 ± 0.04"},
      {"measurement": "group efficiency (GE) of the entire urea group", "setting": "PfPK6; [2]", "result": "0.39 ± 0.02"},
      {"measurement": "group efficiency (GE) of the tail phenyl ring", "setting": "PfPK6; [2]", "result": "> 0.41 ± 0.005"},
      {"measurement": "number of non-mutant kinases inhibited with ≤1% control", "setting": "[1]", "result": 16},
      {"measurement": "selectivity score S1 (1 μM)", "setting": "[1]; KINOMEscan, 403 non-mutant kinases", "result": 0.040}
    ]},
    {"smiles": "COc1cc2nccc(Oc3ccc(NC(=O)Nc4ccc(CC5CCNCC5)c(C(F)(F)F)c4)c(F)c3)c2cc1OC", "note": "[Compound 79, 1-(4-((6,7-dimethoxyquinolin-4-yl)oxy)-2-fluorophenyl)-3-(4-(piperidin-4-ylmethyl)-3-(trifluoromethyl)phenyl)urea]", "values": [
      {"measurement": "PfNEK1 % Activity remaining at 1 μM", "setting": "PfNEK1", "result": 100, "unit": "%"},
      {"measurement": "IC50", "setting": "PfPK6", "result": "< 5", "unit": "nM"},
      {"measurement": "remaining activity at 1 µM", "setting": "PfPK6", "result": 1, "unit": "%"},
      {"measurement": "PfARK1 % Activity remaining at 1 μM", "setting": "PfARK1", "result": 100, "unit": "%"}
    ]}
  ]
}
